# PubChem BioAssay AID248 (DTP/NCI, 2004)
# Values joined by “and” are separate entries in the source; they are usually repeats but may differ in a detail not shown here. Equal values may be shown once. Inconclusive results and toxic doses are left out.
# Tested on: L1210 leukemia ip in BDF1 mice, survival T/C
# Assay: NCI In Vivo Anticancer Drug Screen. Data for tumor model L1210 Leukemia (intraperitoneal) in B6D2F1 (BDF1) mice
# Conditions: endpoint: mean survival time, higher = longer survival
# Method in brief: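 Transplanted-tumor mice were given test agent; controls received vehicle only. Survival readings from the two groups were divided (treated over control).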
# [1] = dose: 100.0 mg/kg/injection, schedule: Q04DX002 (ip), vehicle: Klucel (hydroxypropylcellulose) (HPC)
# [2] = dose: 100.0 mg/kg/injection, schedule: Q01DX009 (ip), vehicle: saline with Tween-80
# [3] = dose: 200.0 mg/kg/injection, schedule: Q01DX009 (ip), vehicle: saline with Tween-80
# [4] = dose: 100.0 mg/kg/injection, schedule: Q04DX003 (ip), vehicle: Klucel (hydroxypropylcellulose) (HPC)
# [5] = dose: 200.0 mg/kg/injection, schedule: Q04DX003 (ip), vehicle: Klucel (hydroxypropylcellulose) (HPC)
# [6] = dose: 100.0 mg/kg/injection, schedule: Q01DX001 (ip), vehicle: carboxymethylcellulose (CMC)
# [7] = dose: 200.0 mg/kg/injection, schedule: Q01DX001 (ip), vehicle: carboxymethylcellulose (CMC)
# [8] = dose: 400.0 mg/kg/injection, schedule: Q01DX001 (ip), vehicle: carboxymethylcellulose (CMC)
smiles,measurement,setting,value
COc1ccc(OC)c(/C=N\NC(=O)c2ccccc2N(C)C)c1,T/C,"dose: 100.0 mg/kg/injection, schedule: Q04DX002 (ip), vehicle: gum acacia",100 % of control
same,T/C,"dose: 200.0 mg/kg/injection, schedule: Q04DX002 (ip), vehicle: gum acacia",90 % of control
same,T/C,"dose: 400.0 mg/kg/injection, schedule: Q04DX002 (ip), vehicle: gum acacia",103 % of control
Cc1no[n+]([O-])c1C(=O)NN,T/C,[1],106 % of control
same,T/C,"dose: 200.0 mg/kg/injection, schedule: Q04DX002 (ip), vehicle: Klucel (hydroxypropylcellulose) (HPC)",91 % of control
same,T/C,"dose: 400.0 mg/kg/injection, schedule: Q04DX002 (ip), vehicle: Klucel (hydroxypropylcellulose) (HPC)",95 % of control
O=c1cc(C(F)(F)F)nc(C(F)(F)F)[nH]1,T/C,"dose: 29.0 mg/kg/injection, schedule: Q01DX Z (ip), vehicle: methylcellulose (MC)",90 % of control
same,T/C,"dose: 45.0 mg/kg/injection, schedule: Q01DX Z (ip), vehicle: methylcellulose (MC)",89 % of control
same,T/C,"dose: 67.0 mg/kg/injection, schedule: Q01DX Z (ip), vehicle: methylcellulose (MC)",89 % of control
same,T/C,"dose: 100.0 mg/kg/injection, schedule: Q01DX Z (ip), vehicle: methylcellulose (MC)",88 % of control
CN(C)[C@@H]1C(=O)C(C(=O)NCNC(Cc2ccc(N(CCCl)CCCl)cc2)C(=O)O)=C(O)[C@@]2(O)C(=O)C3=C(O)c4c(O)cccc4[C@@](C)(O)[C@H]3C[C@@H]12 (stereo partly specified),T/C,"dose: 1.3 mg/kg/injection, schedule: Q01DX009 (ip), vehicle: other",114 % of control
same,T/C,"dose: 4.69 mg/kg/injection, schedule: Q01DX009 (ip), vehicle: saline",121 % of control
same,T/C,"dose: 5.0 mg/kg/injection, schedule: Q01DX001 (ip), vehicle: saline",96 % of control
same,T/C,"dose: 6.6 mg/kg/injection, schedule: Q01DX009 (ip), vehicle: other",152 % of control
same,T/C,"dose: 9.0 mg/kg/injection, schedule: Q01DX001 (ip), vehicle: saline",109 % of control
same,T/C,"dose: 10.0 mg/kg/injection, schedule: Q01DX009 (ip), vehicle: other",173 % of control
same,T/C,"dose: 18.0 mg/kg/injection, schedule: Q01DX009 (ip), vehicle: other",189 % of control
same,T/C,"dose: 18.95 mg/kg/injection, schedule: Q01DX009 (ip), vehicle: saline",162 % of control
same,T/C,"dose: 19.0 mg/kg/injection, schedule: Q01DX001 (ip), vehicle: saline",102 % of control
same,T/C,"dose: 30.0 mg/kg/injection, schedule: Q01DX001 (ip), vehicle: other",156 % of control
same,T/C,"dose: 37.5 mg/kg/injection, schedule: Q01DX009 (ip), vehicle: saline",166 % of control
same,T/C,"dose: 38.0 mg/kg/injection, schedule: Q01DX001 (ip), vehicle: saline",123 % of control
same,T/C,"dose: 44.0 mg/kg/injection, schedule: Q01DX001 (ip), vehicle: other",152 % of control and 164 % of control
same,T/C,"dose: 67.0 mg/kg/injection, schedule: Q01DX001 (ip), vehicle: other",173 % of control
same,T/C,"dose: 75.0 mg/kg/injection, schedule: Q01DX001 (ip), vehicle: saline",122 % of control
same,T/C,"dose: 75.0 mg/kg/injection, schedule: Q01DX009 (ip), vehicle: saline",102 % of control
same,T/C,"dose: 100.0 mg/kg/injection, schedule: Q01DX001 (ip), vehicle: other",191 % of control
COC1CCCCC1I (stereo unspecified),T/C,"dose: 50.0 mg/kg/injection, schedule: Q01DX009 (ip), vehicle: saline with Tween-80",95 % of control
same,T/C,[2],95 % of control
same,T/C,[3],93 % of control
CCCCCCC(N)C(=O)O (stereo unspecified),T/C,"dose: 25.0 mg/kg/injection, schedule: Q04DX002 (ip), vehicle: Klucel (hydroxypropylcellulose) (HPC)",95 % of control
same,T/C,"dose: 50.0 mg/kg/injection, schedule: Q04DX002 (ip), vehicle: Klucel (hydroxypropylcellulose) (HPC)",104 % of control
same,T/C,[1],100 % of control
same,T/C,[4],96 % of control
same,T/C,[5],100 % of control
same,T/C,"dose: 400.0 mg/kg/injection, schedule: Q04DX003 (ip), vehicle: Klucel (hydroxypropylcellulose) (HPC)",103 % of control
CC(O)(/C=C\c1ccccc1)c1ccccc1 (stereo unspecified),T/C,[2],104 % of control
same,T/C,"dose: 100.0 mg/kg/injection, schedule: Q04DX003 (ip), vehicle: saline with Tween-80",103 % of control
same,T/C,[3],102 % of control
same,T/C,"dose: 200.0 mg/kg/injection, schedule: Q04DX003 (ip), vehicle: saline with Tween-80",101 % of control
same,T/C,"dose: 400.0 mg/kg/injection, schedule: Q01DX009 (ip), vehicle: saline with Tween-80",93 % of control
same,T/C,"dose: 400.0 mg/kg/injection, schedule: Q04DX003 (ip), vehicle: saline with Tween-80",108 % of control
O=[N+]([O-])c1ccc(OCCOCCBr)c(Cl)c1,T/C,[6],98 % of control and 101 % of control
same,T/C,"dose: 100.0 mg/kg/injection, schedule: Q01DX009 (ip), vehicle: carboxymethylcellulose (CMC)",101 % of control and 110 % of control
same,T/C,"dose: 100.0 mg/kg/injection, schedule: Q04DX003 (ip), vehicle: carboxymethylcellulose (CMC)",100 % of control and 103 % of control
same,T/C,[7],98 % of control and 90 % of control
same,T/C,"dose: 200.0 mg/kg/injection, schedule: Q01DX009 (ip), vehicle: carboxymethylcellulose (CMC)",95 % of control and 97 % of control
same,T/C,"dose: 200.0 mg/kg/injection, schedule: Q04DX003 (ip), vehicle: carboxymethylcellulose (CMC)",100 % of control and 106 % of control
same,T/C,[8],97 % of control and 101 % of control
same,T/C,"dose: 400.0 mg/kg/injection, schedule: Q01DX009 (ip), vehicle: carboxymethylcellulose (CMC)",95 % of control and 101 % of control
same,T/C,"dose: 400.0 mg/kg/injection, schedule: Q04DX003 (ip), vehicle: carboxymethylcellulose (CMC)",94 % of control
CC(=O)n1ccnc1/C=C\c1ccc([N+](=O)[O-])s1,T/C,[4],103 % of control
same,T/C,[5],101 % of control
CC[As](=O)(O)c1ccc([N+](=O)[O-])cc1,T/C,"dose: 100.0 mg/kg/injection, schedule: Q01DX001 (ip), vehicle: saline with Tween-80",101 % of control
CCO/C(=C\C(=O)c1ccccc1)c1ccccc1,T/C,"dose: 50.0 mg/kg/injection, schedule: Q01DX009 (ip), vehicle: saline sonified",92 % of control
same,T/C,"dose: 100.0 mg/kg/injection, schedule: Q01DX009 (ip), vehicle: saline sonified",95 % of control
same,T/C,"dose: 200.0 mg/kg/injection, schedule: Q01DX009 (ip), vehicle: saline sonified",94 % of control
CC1CNC2C(C)C3C(CC4C5CCC6CC(N=Cc7ccccc7)C(O)CC6(C)C5CCC43C)OC2(O)C1 (stereo unspecified),T/C,"dose: 100.0 mg/kg/injection, schedule: Q01DX001 (ip), vehicle: Klucel (hydroxypropylcellulose) (HPC)",87 % of control
same,T/C,"dose: 400.0 mg/kg/injection, schedule: Q01DX001 (ip), vehicle: Klucel (hydroxypropylcellulose) (HPC)",91 % of control
COC1CC(OC(=O)c2ccc([N+](=O)[O-])cc2)C(OC(=O)c2ccc([N+](=O)[O-])cc2)C(C)O1 (stereo unspecified),T/C,[6],93 % of control
same,T/C,[7],102 % of control
same,T/C,[8],88 % of control
NC(N)=NN=C(C1CC1)C1CC1,T/C,"dose: 15.0 mg/kg/injection, schedule: Q01DX Z (ip), vehicle: carboxymethylcellulose (CMC)",103 % of control
same,T/C,"dose: 30.0 mg/kg/injection, schedule: Q01DX Z (ip), vehicle: carboxymethylcellulose (CMC)",89 % of control
same,T/C,"dose: 60.0 mg/kg/injection, schedule: Q01DX Z (ip), vehicle: carboxymethylcellulose (CMC)",95 % of control
same,T/C,"dose: 120.0 mg/kg/injection, schedule: Q01DX Z (ip), vehicle: carboxymethylcellulose (CMC)",92 % of control and 96 % of control
same,T/C,"dose: 120.0 mg/kg/injection, schedule: Q01DX Z (oral), vehicle: carboxymethylcellulose (CMC)",105 % of control
same,T/C,"dose: 240.0 mg/kg/injection, schedule: Q01DX Z (ip), vehicle: carboxymethylcellulose (CMC)",92 % of control and 104 % of control
same,T/C,"dose: 240.0 mg/kg/injection, schedule: Q01DX Z (oral), vehicle: carboxymethylcellulose (CMC)",105 % of control
same,T/C,"dose: 480.0 mg/kg/injection, schedule: Q01DX Z (ip), vehicle: carboxymethylcellulose (CMC)",104 % of control
same,T/C,"dose: 480.0 mg/kg/injection, schedule: Q01DX Z (oral), vehicle: carboxymethylcellulose (CMC)",103 % of control
same,T/C,"dose: 960.0 mg/kg/injection, schedule: Q01DX Z (oral), vehicle: carboxymethylcellulose (CMC)",100 % of control
Oc1ccccc1/C=N/Nc1nnc(N/N=C/c2ccccc2O)c2ccccc12,T/C,"dose: 50.0 mg/kg/injection, schedule: Q01DX001 (ip), vehicle: carboxymethylcellulose (CMC)",109 % of control
same,T/C,[6],96 % of control
same,T/C,[7],97 % of control
same,T/C,[8],90 % of control
